Data as given in article PMC7578299, “The antiviral effects of baloxavir marboxil against influenza A virus infection in ferrets” (Influenza and Other Respiratory Viruses, 2020).
Where “and” joins values, the source holds several entries; their conditions need not be identical. Equal entries are not always repeated.

Assays:
[1] = tested on: cap-dependent endonuclease (CEN); parameters: method as in PMID 30316915; details: in vitro studies; cited from earlier work
[2] = Metabolic stability in liver microsomes, dog; assay type: in vitro ADME; details: for % Residual in liver microsome: 0.5 mg/mL, 2 μmol/L, 37°C, mean of duplicates; for % Residual in liver microsome Individual value: duplicates
Experimental: (§1) Liver microsomes were prepared from ferrets, rats, dogs, and monkeys, as previously described. ^28 Human liver microsomes were obtained from Sekisui‐XenoTech, LLC and pooled (n = 15). Metabolic stability of the compounds in liver microsomes was tested in duplicate. Oseltamivir and cefcapene pivoxil were used as reference compounds. Liver microsomes at 0.5 mg/mL concentration (final volume of 0.2 mL) were incubated in Tris‐HCl buffer (pH 7.4), containing 50 mmol/L Tris‐HCl, 150 mmol/L KCl, 10 mmol/L MgCl2. The hydrolysis reaction was initiated by applying the test compound solution (final concentration 2 μmol/L). After incubation for 10, 20, and 30 minutes at 37°C, the hydrolysis was terminated by the addition of twofold volume of ice‐cold acetonitrile/methanol (1:1, v/v). Samples were centrifuged at 3000 rpm for 10 minutes prior to LC‐MS/MS analysis of compounds in the supernatants.

[3] = Metabolic stability in liver microsomes, human; assay type: in vitro ADME; details: for % Residual in liver microsome: 0.5 mg/mL, 2 μmol/L, 37°C, mean of duplicates; for % Residual in liver microsome Individual value: duplicates
Experimental: as §1

[4] = Metabolic stability test, control (microsome free); assay type: in vitro ADME; details: microsome free; for % Residual, Control (Microsome free): 2 μmol/L, 37°C, mean of duplicates; for % Residual Individual value, Control (Microsome free): duplicates
Experimental: as §1

[5] = Metabolic stability in liver microsomes, monkey; assay type: in vitro ADME; details: monkey; for % Residual in liver microsome: 0.5 mg/mL, 2 μmol/L, 37°C, mean of duplicates; for % Residual in liver microsome Individual value: duplicates
Experimental: as §1

SMILES: COC(=O)OCOc1c2n(ccc1=O)N([C@@H]1c3ccccc3SCc3c1ccc(F)c3F)[C@@H]1COCCN1C2=O [BXM, Baloxavir marboxil]
- CEN inhibitory activity, fold lower than that of BXA [1]: ≥ 200 fold
- % Residual in liver microsome ([2]; 10 min): 0.1%
- % Residual in liver microsome ([2]; 20 min): 0.1%
- % Residual in liver microsome ([2]; 30 min): 0.0%
- % Residual in liver microsome Individual value ([2]; 10 minutes): 0.1%
- % Residual in liver microsome Individual value ([2]; 20 minutes): 0.1%
- % Residual in liver microsome Individual value ([2]; 30 minutes): 0.0% and 0.1%
- % Residual in liver microsome ([3]; 10 min): 8.2%
- % Residual in liver microsome ([3]; 20 min): 0.3%
- % Residual in liver microsome ([3]; 30 min): 0.0%
- % Residual in liver microsome Individual value ([3]; 10 minutes): 8.4% and 8.0%
- % Residual in liver microsome Individual value ([3]; 20 minutes): 0.3% and 0.2%
- % Residual in liver microsome Individual value ([3]; 30 minutes): 0.0%
- % Residual, Control (Microsome free) ([4]; 10 min): 81.3%
- % Residual, Control (Microsome free) ([4]; 20 min): 81.7%
- % Residual, Control (Microsome free) ([4]; 30 min): 92.1%
- % Residual Individual value, Control (Microsome free) ([4]; 10 minutes): 72.2% and 90.3%
- % Residual Individual value, Control (Microsome free) ([4]; 20 minutes): 81.2% and 82.1%
- % Residual Individual value, Control (Microsome free) ([4]; 30 minutes): 86.1% and 98.1%
- % Residual in liver microsome ([5]; 10 min): 0.0%
- % Residual in liver microsome ([5]; 20 min): 0.0%
- % Residual in liver microsome ([5]; 30 min): 0.0%
- % Residual in liver microsome Individual value ([5]; 10 minutes): 0.0%
- % Residual in liver microsome Individual value ([5]; 20 minutes): 0.0%
- % Residual in liver microsome Individual value ([5]; 30 minutes): 0.0%
